As a reminder, the IC50 is the concentration that gives 50% inhibition. As usually defined, the Papp A→B is the apparent permeability from the apical to the basolateral side of a cell layer. For orientation: Papp B→A means the apparent permeability from the basolateral to the apical side of a cell layer.

The values that follow come from patent US20230026163A1, “ANTICANCER COMPOUND AND MEDICAL USE THEREOF” (ASCENTAWITS PHARMACEUTICALS, LTD., priority 2019, published 2023).

The subject of one data set is AA8. Description: Cytotoxicity on cell lines of different species: AA8. The class given is cell-based.
Data set [1] has as its system H460 non-small cell lung cancer. The following applies: cited from earlier work.
The target of data set [2] is T1, P-glycoprotein (Homo sapiens, UniProt P08183). More on the design: expressed in transfected cells; host or cells: MDCKII-MDR1 (MDCKII canine kidney cells). Particulars: cited from earlier work.
Data set [3] relates to H460 cell line. Briefly: Cytotoxicity comparison of TH-302 and compound 01 on H460 at different test times. The following applies: Homo sapiens, NCI-H460, 2 h, H460, exposure for 2 hours, air. The class given is cell-based, human. The text has this: The cytotoxicity test results of TH-302 and compound 01 on H460 cell line under different test times in the same laboratory, the same operator, and the same experimental conditions.

Data set [4] deals with H460 cell line. Briefly: Hypoxia-dependent cytotoxicity experiment (2 hours exposure, air or N2, CTG). Format: cell-based. The following applies: Homo sapiens, then 3 days. On the procedure:
To determine the effect of the compounds of the present disclosure on cancer cell proliferation, these compounds were tested for cancer cell anti-proliferative activity in a porous CTG-based assay. Cell growth was compared in the present (treatment groups) and the absence of the test compound. 10,000 cells/well/495 μL of medium was used to test the following cell line, a human tumor cell line of H460 non-small cell lung cancer. The cells were seeded on glass-inserts located in each well of 24-well plates with a density and medium as specified above. 24 hours later, the plates were divided into 2 groups, hypoxia (using N2) group and air group. TH-302 at the concentrations from 100, 10, 0.1 to 0.01 μM, and the test compounds at the concentrations from 10, 1, 0.1, 0.01, 0.001 to 0.0001 were added to each well (500 μL volume) of the treatment groups. The final DMSO concentration in each well was lower than or equal to 1%. The cells in the hypoxia group were incubated for 2 hours in an ELECTROTEK hypoxia workstation. The cells in the air group were incubated for 2 hours in a standard culture incubator. 2 hours later, the test compounds were removed from each well. The cells were washed with 500 μL of medium and incubated in 500 μL of fresh medium for 3 days. 3 days later, 200 μL of medium per well was discarded. 60 μL of CTG was added to the wells, and the plates were placed at room temperature for 15 minutes in the dark. 100 μL of medium from each well of the 24-well plates was transferred to 96-well plates. The chemiluminescence signal values were read with an M5 full-band multi-mode-function microplate reader, and integration=750 ms. The compounds of control 1 and control 2 were used as controls.

For another data set, the system named is H460. Description: Cytotoxicity on cell lines of different species: H460. The class given is cell-based. The following applies: NCI-H460; H460, Human; exposure time: 72 h.
The target in data set [5] is T1, P-glycoprotein. Description: in vitro. Particulars: MDCK-MDR1; for Papp A→B at 2 h / Papp B→A at 2 h: dog. The procedure:
MDCKII-MDR1 cells were incubated in cell culture flasks. The incubator was set at 37° C., 5% CO2, and a guaranteed relative humidity of 95%. When the cells reached 70 to 90% confluence, the cells may be seeded to transwells.
50 μL of the cell suspensions were added to the apical chambers of each well of the 96-well transwells at a final seeding density of 5.45×10^5 cells/cm^2.
MDCKII-MDR1 cells may be fully confluent and differentiated after 4 to 8 days of incubation. At this time, the cells may be applied to penetration test. The monolayer membrane resistance was measured with a resistance meter (Millipore), and the resistance per well was recorded. After the test, the transwells were returned to the incubator.
The transwells with MDCKII-MDR1 cells were taken from the incubator. The cell monolayers were rinsed twice with buffer and incubated at 37° C. for 30 minutes.
The rate of the compounds from an apical end to a basolateral end was determined. 75 μL of the buffer containing the test sample was added to each well of the apical chambers (apical end), and 235 μL of the buffer was added to each well of the basolateral chambers (basolateral end).
The rate of the compounds transporting from the basolateral end to the apical end was determined. 75 μL of the buffer was added to the apical chambers (apical end), and 235 μL of the buffer containing the test sample was added to the basolateral chamber (basolateral end).
After the apical chambers and the basolateral chambers were combined respectively, the transwells were incubated at 37° C. for 2 hours.
After incubation, 50 μL of the sample from each well of the apical chambers and the basolateral chambers of the transwells was transferred to new sample tubes respectively. 200 μL of acetonitrile (100 nM of Alprazolam, 200 nM of Labetalol, 200 nM of caffeine, and 2 μM of Ketoprofen) as an internal standard was added to the sample tubes, vortexed for 10 minutes, and centrifuged at 3220 g for 30 minutes. 100 μL of the supernatant was taken and diluted with an equal volume of water for LC-MS/MS analysis. Each sample was incubated in triplicate.
Peak-areas were calculated from ion chromatography results. The apparent permeability coefficient (Papp, unit: cm/s×10-6) of the compounds was calculated by the following formula.
In the formula, VA was the volume of the solution at the acceptor end (Ap→B1 was 0.235 mL, and B1→Ap was 0.075 mL), Area was the membrane area (0.143 cm^2) of 96-well transwell, time was the incubation time (unit: s), [drug]acceptor referred to the drug concentration of the acceptor end after incubation, and [drug]initial,donor referred to the initial concentration of the donor end before incubation.
Efflux ratio was calculated with the following formula.
In the formula, Papp(B_A) was the apparent permeability coefficient from the basolateral end to the apical end, and Papp(A-B) was the apparent permeability coefficient from the apical end to the basolateral end.
The recovery rate was calculated with the following formula.
In the formula, VA was the solution volume of the acceptor end (unit: mL), VD was the solution volume of the donor end (unit: mL), [drug]acceptor referred to the drug concentration of the acceptor end after incubation, and [drug]initial,donor referred to the initial concentration of the donor end before incubation.

Another data set is described as follows: Plasma stability, dog. The class given is in vitro ADME. The following applies: Dog plasma, 5 μM, 37° C., after 30 minutes. The procedure: (§1) Frozen plasma was melted immediately in a water bath at 37° C. […] The supernatants were collected into new tubes, respectively. pH values of the plasma were checked and recorded. Note: a, no more 2 times melted plasma was used since the sample was received; b, the plasma in pH 7 to pH 8 was used.
(§2) 1 mM of working solution of the test compounds and the control compound, propantheline, were prepared in DMSO. 1 mM of working solution of the control compound in […] was prepared in acetonitrile. 4 μL of the working solutions were added to 796 μL of pre-incubated plasma respectively to achieve a final concentration of 5 μM. The final concentration of solvent was 0.5%.
(§3) […] The test was performed in duplicate. […] 50 μL of the labeled plasma was added to new tubes containing 300 μL of the quench solution of room temperature, i.e., the sample with a preparation time of 0. The samples were vortexed to mix for 5 minutes. […] 100 μL of the supernatant was transferred to new plates.

A short description of a further data set: Plasma stability, rat. The class given is in vitro ADME. The following applies: Rat plasma, 5 μM, 37° C., after 30 minutes. On the procedure: as §1, §2, §3
The nature of another data set: Plasma stability, monkey. Format: in vitro ADME. The following applies: 5 μM, 37° C., after 30 minutes. The procedure: as §1, §2, §3
A short description of the next data set: Plasma stability, mouse. The class given is in vitro ADME. Particulars: Mouse plasma, 5 μM, 37° C., after 30 minutes. The procedure: as §1, §2, §3
A further data set is described as follows: Plasma stability, human. The following applies: 5 μM, 37° C., after 30 minutes. Format: in vitro ADME. The procedure: as §1, §2
Aliquots of 50 μL of labelled plasma were transferred to new tubes and incubated in a water bath at 37° C. at approximately 60 rpm for 2 hours. The test was performed in duplicate. […] 50 μL of the labeled plasma was added to new tubes containing 300 μL of the quench solution of room temperature, i.e., the sample with a preparation time of 0. The samples were vortexed to mix for 5 minutes. […] 100 μL of the supernatant was transferred to new plates.

The subject of data set [6] is H460 cell line. The following applies: test results in WO2016210175A1 and CN108024974A, cited from earlier work.
Where [7] appears, read: test results in WO2016210175A1 and CN108024974A.

The structures appear in SMILES notation. Like-named read-outs stand apart in the source and are kept apart here.

T1 sequence (P08183 whole entry): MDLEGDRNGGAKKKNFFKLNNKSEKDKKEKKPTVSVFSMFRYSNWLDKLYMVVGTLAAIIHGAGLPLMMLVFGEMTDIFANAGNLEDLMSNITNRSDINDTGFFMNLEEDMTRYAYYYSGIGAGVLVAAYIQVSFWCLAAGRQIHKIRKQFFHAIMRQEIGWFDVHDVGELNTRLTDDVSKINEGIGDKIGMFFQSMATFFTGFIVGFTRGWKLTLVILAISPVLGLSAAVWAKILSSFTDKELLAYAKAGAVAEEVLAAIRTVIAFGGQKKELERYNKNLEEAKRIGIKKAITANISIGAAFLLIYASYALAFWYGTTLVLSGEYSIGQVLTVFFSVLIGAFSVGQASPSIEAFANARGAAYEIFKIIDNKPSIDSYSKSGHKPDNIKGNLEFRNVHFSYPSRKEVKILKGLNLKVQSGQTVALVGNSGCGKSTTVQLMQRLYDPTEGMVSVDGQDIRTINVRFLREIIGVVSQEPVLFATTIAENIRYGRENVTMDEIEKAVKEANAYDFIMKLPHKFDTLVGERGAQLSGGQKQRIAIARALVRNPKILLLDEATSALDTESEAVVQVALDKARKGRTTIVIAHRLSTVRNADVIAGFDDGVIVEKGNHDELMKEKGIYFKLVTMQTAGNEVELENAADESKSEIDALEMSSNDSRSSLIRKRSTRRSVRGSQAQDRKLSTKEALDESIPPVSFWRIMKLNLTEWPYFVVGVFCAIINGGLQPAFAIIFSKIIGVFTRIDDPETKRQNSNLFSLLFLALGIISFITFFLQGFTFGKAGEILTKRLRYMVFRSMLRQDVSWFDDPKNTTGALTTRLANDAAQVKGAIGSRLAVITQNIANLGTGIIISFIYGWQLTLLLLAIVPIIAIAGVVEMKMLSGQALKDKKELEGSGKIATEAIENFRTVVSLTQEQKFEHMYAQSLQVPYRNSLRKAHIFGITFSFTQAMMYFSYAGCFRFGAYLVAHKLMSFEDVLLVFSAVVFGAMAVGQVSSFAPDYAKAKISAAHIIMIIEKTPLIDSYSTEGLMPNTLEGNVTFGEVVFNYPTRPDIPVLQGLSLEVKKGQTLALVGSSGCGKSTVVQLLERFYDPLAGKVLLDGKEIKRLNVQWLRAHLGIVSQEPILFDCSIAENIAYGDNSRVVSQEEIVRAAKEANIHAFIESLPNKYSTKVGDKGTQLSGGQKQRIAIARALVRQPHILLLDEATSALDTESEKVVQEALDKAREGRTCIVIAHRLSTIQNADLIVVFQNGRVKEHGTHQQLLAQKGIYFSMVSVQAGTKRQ

For the molecule `Cn1c(COP(=O)(NCCBr)NCCBr)cnc1[N+](=O)[O-]` [Control 1, Evofosfamide, reference compound], the IC50 with AA8 (CHO-AA8, AA8, Rat, exposure time: 72 h) was 830 µM; in [1] (value from published literature (Meng et al., Mol Cancer Ther 2012)), 0.8 µM; with H460 cell line [3] (Time 1), 23 µM; with H460 cell line [3] (Time 2) it was 8 µM; with H460 cell line [3] (Time 3), 3.3 µM; in the data set with H460 cell line [4] (NCI-H460, H460, air, read-out: Normoxia: IC50) it was 7.98 µM. The IC50 was 0.0479 µM with H460 cell line [4] (NCI-H460, H460, hypoxia (N2), read-out: N2: IC50) and 20 µM in the data set with H460. The “Multiple: Rat/Human” value in the data set on AA8 (IC50 AA8 / IC50 H460) is listed as 41.5. The “P-gp substrate (known / earlier data and literature)” value on P-glycoprotein [2] was “P-gp substrate”.

As to `Cc1ccc(NC(=O)c2ccc(CN3CCN(C)CC3)cc2)cc1Nc1nccc(-c2cccnc2)n1` [Imatinib, reference compound], on P-glycoprotein [5], the “Papp (A-B)” value is listed as 21.94 10^−6, cm/s; the “Papp (B-A)” value is listed as 18.69 10^−6, cm/s; the Papp A→B at 2 h was found to be 2.24 ×10⁻⁶ cm/s; the basolateral-to-apical permeability (Papp B→A) at 2 h amounted to 24.1 ×10⁻⁶ cm/s. The “P-gp substrate (known / earlier data and literature)” value at P-glycoprotein [2] is “known P-gp substrates”.

Consider `CC[C@H](C)C(=O)O[C@H]1C[C@@H](C)C=C2C=C[C@H](C)[C@H](CC[C@@H]3C[C@@H](O)CC(=O)O3)[C@H]21` [Lovastatin, reference compound], for which the Remaining percentage in “Plasma stability, dog” amounted to 37.6%; in the data set “Plasma stability, rat”, 0.21%.

Regarding `COc1cc2nc(N3CCN(C(=O)c4ccco4)CC3)nc(N)c2cc1OC` [Prazosin, reference compound], at P-glycoprotein [5], the “Papp (A-B)” value is 28.47 10^−6, cm/s; the “Papp (B-A)” value was 14.14 10^−6, cm/s; the Papp A→B at 2 h came to 14 ×10⁻⁶ cm/s; the basolateral-to-apical permeability (Papp B→A) at 2 h worked out at 28.2 ×10⁻⁶ cm/s. The “P-gp substrate (known / earlier data and literature)” value on P-glycoprotein [2] is listed as “known P-gp substrates”.

As to `CC(C)[N+](C)(CCOC(=O)C1c2ccccc2Oc2ccccc21)C(C)C` [Propantheline, reference compound], the Remaining percentage turned out to be 48.11% in “Plasma stability, monkey”; 5.33% in “Plasma stability, mouse”; 0.07% in “Plasma stability, human”.

On to `C[C@@H](OP(=O)(N1CC1)N1CC1)c1ccc([N+](=O)[O-])cc1` [TH2565], for which the half-maximal inhibitory concentration (IC50) in the data set with H460 cell line [6] (read-out: N2: IC50) was 18 µM; in the data set on H460 cell line [6] (read-out: Normoxia: IC50) it was 0.1 µM; in data set [1] (setting [7]) it was 0.1 µM.

Take `C[C@H](OP(=O)(N1CC1)N1CC1)c1ccc([N+](=O)[O-])cc1` [TH2566]: the 50% inhibitory concentration (IC50) in the data set with H460 cell line [6] (read-out: N2: IC50) is 23 µM; in the data set with H460 cell line [6] (read-out: Normoxia: IC50), 0.1 µM; in data set [1] (setting [7]), 0.1 µM.
